Data taken from PubChem BioAssay AID2060894 (Molecular Pharmacology Branch, DTP, NCI, 2025).

Test system: K12877-001-R-J1-PDC complex spheroid viability
Test: Anticancer human tumor K12877-001-R-J1-PDC patient-derived lung adenocarcinoma cell line growth inhibition [RAS]
Settings: for IC50: curve of first compound; for viability, T/C: stronger effect = lower value
From the text: RAS pathway inhibitors in Combinations in Complex Spheroids
A high-throughput screen of multi-cell type tumor spheroids was designed to identify active combinations of RAS pathway inhibitors and targeted small molecules. Complex spheroids include a stromal component modeled by human endothelial cells (HUVEC) and fibroblasts modeled by human mesenchymal stem cells (MSCs). The concentration ranges selected for each drug and investigational agent were based upon clinically achievable concentrations if the clinical Cmax of the agent was known.
Compounds. The drugs and investigational agents: abemaciclib (NSC768073), cobimetinib (NSC768068), divarasib (GDC6063, NSC841802), docetaxel (NSC628503), GDC-1971 (RLY-1971, NSC841576), gemcitabine (NSC613327), inavolisib (NSC800729), ipatasertib (NSC767898), KB-0742 (NSC834161), MRTX-1133 (NSC836407), osimertinib (NSC779217), RMC-4630 (NSC839698), RMC-6236 (NSC851965), RMC-6291 (NSC852671), Ro-3306 (NSC812927), sapanisertib (NSC764658), SN-38 (NSC673596), staurosporine (NSC755774), SY5609 (NSC837396), and tovorafenib (DAY101, NSC766906), were obtained from the National Cancer Institute (NCI) Developmental Therapeutics Program Chemical Repository. The FDA-approved anticancer drug set is available from the NCI Developmental Therapeutics Program. […] The stock solutions were prepared in dimethyl sulfoxide (DMSO, Sigma-Aldrich, St. Louis, MO, cat. D2650) at 800-fold the tested concentration and stored at -70 degrees C prior to their use. All drugs and investigational agents were tested over a range starting from a high concentration at or near the clinical Cmax and decreasing in half-log increments. If the clinical Cmax for an agent had not been determined, the highest concentration tested was 10 microM.
Cell Culture. All cells were maintained in an incubator at 37 degrees C and 5% CO2 with 95% humidity. The PDC lines were cultured according to standard operating procedures established by the NCI PDMR. All PDCs were thawed and cultured in Matrigel-coated flasks prepared with a working solution of 1X Ham's F-12 nutrient mix, without supplementation (Invitrogen, Waltham, MA, cat. 11765054), 100 U/mL penicillin-streptomycin (Invitrogen, cat. 15140122), and 2.5% Matrigel (Corning Inc., Corning, NY, cat. 354248) for the first three passages. The 362531-283-R-J2-PDC and 782815-120-R-J1-PDC lines were cultured in 6C/Colon 1B media, which includes advanced DMEM/F-12 (Thermo Fisher Scientific, cat. 12634028), 10 mM HEPES (Thermo Fisher Scientific, cat. 15630080), 1X GlutaMAX supplement (Thermo Fisher Scientific, cat. 35050061), 0.1 mg/mL primocin (InvivoGen, San Diego, CA, cat. ant-pm-2), 10% defined fetal bovine serum, heat inactivated (HyClone Laboratories Inc., Logan, UT, cat. SH30070.03HI), 50% L-WRN conditioned media (ATCC, cat. CRL-3276), 1.25 mM N-Acetyl-L-cysteine (Sigma-Aldrich, cat. A9165), 10 mM nicotinamide (Sigma-Aldrich, cat. N0636), 1X B-27 supplement (Thermo Fisher Scientific, cat. 17504044), 1X N-2 supplement (Thermo Fisher Scientific, cat. 17502048), 50 ng/mL human EGF (Thermo Fisher Scientific, cat. PHG0311), and 10 microM Y-27632 dihydrochloride (Tocris Bioscience, cat. 1254). The K12877-001-R-J1-PDC line was cultured in 6I media, which includes all 6C/Colon 1B media plus 10 ng/mL human FGF-10 (PeproTech, cat. 100-26), 1 ng/mL human FGF-2 (PeproTech, cat. 100-18B), 1 µM prostaglandin E2 (Tocris Bioscience, cat. 2296), […] hydrocortisone (Sigma-Aldrich, cat. H4001), and […] bovine insulin (Sigma-Aldrich, cat. I6634). The K86415-001-R-J1-PDC line was cultured in 6D media, which includes all 6C/Colon 1B media components minus the L-WRN conditioned media. The 485176-168-R4-J1-PDC was cultured in PANC media, which includes all 6C/Colon 1B media plus 100 ng/mL human FGF-10 (PeproTech, cat. 100-26), 500 nM SB-431542 (Selleckchem, cat. S1067), and 10 nM gastrin (Tocris Bioscience, cat. 3006). […]
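Also: spheroids exposed to agents for one week before readout.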

## CCc1c2c(nc3ccc(O)cc13)-c1cc3c(c(=O)n1C2)COC(=O)[C@]3(O)CC + C=CC(=O)N1CCN(c2nc(OCC3CCCN3C)nc3c(F)c(-c4nc(N)cc(C)c4C(F)(F)F)c(Cl)cc23)C(C)C1
Second compound 0.00316 µM
  IC50: 5.1 nM
Second compound 0.01 µM
  IC50: 4.8 nM
Second compound 0.0316 µM
  IC50: 4.04 nM
Second compound 0.1 µM
  IC50: 4.57 nM
Second compound 0.316 µM
  IC50: 4.75 nM
Second compound 1 µM
  IC50: 4.35 nM
Second compound 0.00316 µM, first compound 0.000949 µM
  viability, T/C: 88.5%
Second compound 0.00316 µM, first compound 0.003 µM
  viability, T/C: 84%
Second compound 0.00316 µM, first compound 0.00949 µM
  viability, T/C: 10.2%
Second compound 0.00316 µM, first compound 0.03 µM
  viability, T/C: 4.07%
Second compound 0.00316 µM, first compound 0.0949 µM
  viability, T/C: 2.12%
Second compound 0.00316 µM, first compound 0.3 µM
  viability, T/C: 1.09%
Second compound 0.01 µM, first compound 0.000949 µM
  viability, T/C: 89%
Second compound 0.01 µM, first compound 0.003 µM
  viability, T/C: 77.8%
Second compound 0.01 µM, first compound 0.00949 µM
  viability, T/C: 9.78%
Second compound 0.01 µM, first compound 0.03 µM
  viability, T/C: 4.25%
Second compound 0.01 µM, first compound 0.0949 µM
  viability, T/C: 2.46%
Second compound 0.01 µM, first compound 0.3 µM
  viability, T/C: 1.37%
Second compound 0.0316 µM, first compound 0.000949 µM
  viability, T/C: 88.3%
Second compound 0.0316 µM, first compound 0.003 µM
  viability, T/C: 64.4%
Second compound 0.0316 µM, first compound 0.00949 µM
  viability, T/C: 8.38%
Second compound 0.0316 µM, first compound 0.03 µM
  viability, T/C: 4.14%
Second compound 0.0316 µM, first compound 0.0949 µM
  viability, T/C: 2.38%
Second compound 0.0316 µM, first compound 0.3 µM
  viability, T/C: 1.15%
Second compound 0.1 µM, first compound 0.000949 µM
  viability, T/C: 75.2%
Second compound 0.1 µM, first compound 0.003 µM
  viability, T/C: 73.2%
Second compound 0.1 µM, first compound 0.00949 µM
  viability, T/C: 9.95%
Second compound 0.1 µM, first compound 0.03 µM
  viability, T/C: 2.92%
Second compound 0.1 µM, first compound 0.0949 µM
  viability, T/C: 1.65%
Second compound 0.1 µM, first compound 0.3 µM
  viability, T/C: 1.21%
Second compound 0.316 µM, first compound 0.000949 µM
  viability, T/C: 83.4%
Second compound 0.316 µM, first compound 0.003 µM
  viability, T/C: 77.9%
Second compound 0.316 µM, first compound 0.00949 µM
  viability, T/C: 7.81%
Second compound 0.316 µM, first compound 0.03 µM
  viability, T/C: 3.82%
Second compound 0.316 µM, first compound 0.0949 µM
  viability, T/C: 2.34%
Second compound 0.316 µM, first compound 0.3 µM
  viability, T/C: 2.52%
Second compound 1 µM, first compound 0.000949 µM
  viability, T/C: 82.2%
Second compound 1 µM, first compound 0.003 µM
  viability, T/C: 69.9%
Second compound 1 µM, first compound 0.00949 µM
  viability, T/C: 8.23%
Second compound 1 µM, first compound 0.03 µM
  viability, T/C: 5.41%
Second compound 1 µM, first compound 0.0949 µM
  viability, T/C: 2.4%
Second compound 1 µM, first compound 0.3 µM
  viability, T/C: 1.32%
